# Source: patent US20240208954A1, “OXADIAZOLE COMPOUND, PREPARATION METHOD THEREFOR, PHARMACEUTICAL COMPOSITION AND USE THEREOF” (SHANGHAI INSTITUTE OF MATERIA MEDICA, CHINESE ACADEMY OF …, priority 2020, published 2024)
# Where “and” joins values, the source holds several entries; their conditions need not be identical. Equal entries are not always repeated. Where two headings read alike, the source gives them in different places.
# Legend:
# S1PR1 = molecular target: T1, S1PR1 (Homo sapiens, UniProt P21453); experiment: Agonistic activity test on S1P receptors, FLIPR, CHO-K1/Ga15/EDG1 cells; type: cell-based; settings: CHO-K1/Ga15/EDG1 cells, FLIPR agonist mode; read-out: S1PR1 EC50
# T1 construct: host or cells: CHO-K1 co-expressing Ga15
# Experimental: (§1) Instrument: FLIPR™ TETRA (Molecular Device)
# Experimental materials: CHO-K1/Ga15/EDG1 cells constructed by GenScript autonomously.
# (§2) Sample processing: Before the experiment, the working solution with the corresponding concentration was prepared by diluting with GPCR dilution buffer.
# (§3) After 18-20 hours, the cell culture plat was taken out and added with dye working solution, and then the plate was placed in a 37° C./5% CO2 incubator for 1 hour, and finally equilibrated at room temperature for 15 minutes. Positive agonist working solution was added, and RFU values were detected and recorded. […] The positive agonist working fluid was added to the cell culture plate at the 21st second. […] The antagonistic mode detection program, the overall detection time of the instrument was 120 seconds, and positive antagonist working solution was added to the cell culture plate at the 21st second.
# (§4) Data processing: Raw data were obtained via ScreenWorks (version 3.1) and saved as *FMD files on the Kingsray computer network system. Data were collected and analyzed using Excel and GraphPad Prism 6 software programs. For each well, the average fluorescence intensity value from 1 to 20 seconds was used as the baseline, and the maximum fluorescence intensity value from 21 to 120 seconds minus the minimum fluorescence intensity value from 21 to 120 seconds was the relative fluorescence intensity value (ARFU), from which the percentage activation or inhibition can be calculated based on the following equation.
# (§5) % Activation Rate=(ΔRFUCompound-ΔRFUBackground)/(ΔRFUAgonist control-ΔRFUBackground)×100%
# (§6) The data was analyzed using GraphPad Prism 6 with a four-parameter equation to calculate the EC50 and IC50 values. The four-parameter equation was as follows: y=Bottom+(Top-Bottom)/(1+10^((LogEC50/IC50-X)*HillSlope)), wherein X is the Log value of the concentration and Y was the inhibition rate.
# S1PR3 = S1PR3 (Homo sapiens, UniProt Q99500); experiment: Agonistic activity test on S1P receptors, FLIPR; type: cell-based
# Experimental: as §1, §2, §3, §4, §5, §6
# S1P receptor = experiment: Subtype selectivity study of compound A1, overall statement; type: cell-based; settings: especially for S1P1 and S1P5 subtypes
# Experimental: The S1P receptor selectivity was tested for different subtypes using the method described in Experimental Example 1.
# [1] = Preliminary assessment of in vivo pharmacokinetics in rats; settings: for concentration at 0.083 h / concentration at 0.25 h / concentration at 0.5 h / concentration at 1 h / concentration at 2 h / concentration at 4 h / concentration at 6 h / concentration at 8 h / concentration at 24 h: read-out: Plasma drug concentrations in rats
# [2] = rat, in vivo, rats, intravenous 2 mg/kg, mean
# Chain of S1PR3 (Q99500 whole entry, species assumed): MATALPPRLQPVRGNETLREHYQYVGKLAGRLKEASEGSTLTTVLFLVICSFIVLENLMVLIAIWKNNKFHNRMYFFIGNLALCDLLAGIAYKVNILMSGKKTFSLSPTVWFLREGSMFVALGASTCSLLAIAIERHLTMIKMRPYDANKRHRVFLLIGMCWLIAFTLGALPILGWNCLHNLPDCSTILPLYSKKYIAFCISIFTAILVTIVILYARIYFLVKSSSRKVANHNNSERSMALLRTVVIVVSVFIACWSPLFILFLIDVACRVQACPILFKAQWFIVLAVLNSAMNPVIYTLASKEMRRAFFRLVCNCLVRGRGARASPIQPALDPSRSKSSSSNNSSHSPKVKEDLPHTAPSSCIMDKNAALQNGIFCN
# T1 sequence (P21453 whole entry): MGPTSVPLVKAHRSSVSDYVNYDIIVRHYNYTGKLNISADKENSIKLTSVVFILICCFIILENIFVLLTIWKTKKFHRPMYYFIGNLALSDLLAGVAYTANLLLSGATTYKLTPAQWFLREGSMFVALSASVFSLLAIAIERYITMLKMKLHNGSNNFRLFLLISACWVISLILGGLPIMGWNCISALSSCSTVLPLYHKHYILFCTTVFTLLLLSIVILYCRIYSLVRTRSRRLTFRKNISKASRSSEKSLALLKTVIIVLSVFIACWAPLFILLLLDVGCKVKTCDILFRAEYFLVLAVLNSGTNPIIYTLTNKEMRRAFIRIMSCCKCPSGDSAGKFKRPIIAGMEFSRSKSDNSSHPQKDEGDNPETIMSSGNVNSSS
structure (smiles),measurement,setting,value
"CC(C)Oc1ccc(-c2nc(-c3ccc(CN4CC(C(=O)O)C4)c4ccccc34)no2)cc1C#N.Cl [Compound A1, 1-((4-(5-(3-cyano-4-isopropoxyphenyl)-1,2,4-oxadiazol-3-yl)naphthalen-1-yl)methyl) azetidine-3-carboxylic acid hydrochloric acid]",EC50,S1PR1,0.048 µM
same,EC50,"S1PR3; FLIPR agonist mode, read-out: S1PR3 EC50",> 10 µM
same,EC50,"S1PR3; subtype selectivity study, read-out: S1P3 EC50",> 10 µM
same,selectivity for different S1P receptor subtypes,S1P receptor,good selectivity
same,Plasma drug concentrations in rats,"[1]; intragastric 20 mg/kg, 0.25 h, individual animals 4-6, listed as DC411151",1960 ng/mL and 696 ng/mL and 1150 ng/mL
same,Plasma drug concentrations in rats,"[1]; intragastric 20 mg/kg, 0.5 h, individual animals 4-6, listed as DC411151",1570 ng/mL and 2600 ng/mL
same,Plasma drug concentrations in rats,"[1]; intragastric 20 mg/kg, 1 h, individual animals 4-6, listed as DC411151",2070 ng/mL and 3070 ng/mL
same,Plasma drug concentrations in rats,"[1]; intragastric 20 mg/kg, 2 h, individual animals 4-6, listed as DC411151",1220 ng/mL and 2150 ng/mL
same,Plasma drug concentrations in rats,"[1]; intragastric 20 mg/kg, 4 h, individual animals 4-6, listed as DC411151",635 ng/mL and 841 ng/mL
same,Plasma drug concentrations in rats,"[1]; intragastric 20 mg/kg, 6 h, individual animals 4-6, listed as DC411151",350 ng/mL and 289 ng/mL
same,Plasma drug concentrations in rats,"[1]; intragastric 20 mg/kg, 8 h, individual animals 4-6, listed as DC411151",64.0 ng/mL and 57.0 ng/mL
same,Plasma drug concentrations in rats,"[1]; intragastric 20 mg/kg, 24 h, individual animals 4-6, listed as DC411151",2.49 ng/mL and 2.92 ng/mL
same,Plasma drug concentrations in rats,"[1]; intravenous 2 mg/kg, 0.083 h, individual animals 1-3, listed as DC411151, 2 mg/kg",3720 ng/mL and 3390 ng/mL
same,Plasma drug concentrations in rats,"[1]; intravenous 2 mg/kg, 0.25 h, individual animals 1-3, listed as DC411151, 2 mg/kg",2650 ng/mL and 2700 ng/mL
same,Plasma drug concentrations in rats,"[1]; intravenous 2 mg/kg, 0.5 h, individual animals 1-3, listed as DC411151, 2 mg/kg",1710 ng/mL and 1890 ng/mL
same,Plasma drug concentrations in rats,"[1]; intravenous 2 mg/kg, 1 h, individual animals 1-3, listed as DC411151, 2 mg/kg",1110 ng/mL and 951 ng/mL
same,Plasma drug concentrations in rats,"[1]; intravenous 2 mg/kg, 2 h, individual animals 1-3, listed as DC411151, 2 mg/kg",563 ng/mL and 528 ng/mL
same,Plasma drug concentrations in rats,"[1]; intravenous 2 mg/kg, 4 h, individual animals 1-3, listed as DC411151, 2 mg/kg",138 ng/mL and 172 ng/mL
same,Plasma drug concentrations in rats,"[1]; intravenous 2 mg/kg, 6 h, individual animals 1-3, listed as DC411151, 2 mg/kg",51.4 ng/mL and 47 ng/mL
same,Plasma drug concentrations in rats,"[1]; intravenous 2 mg/kg, 8 h, individual animals 1-3, listed as DC411151, 2 mg/kg",13.6 ng/mL and 16.9 ng/mL
same,Plasma drug concentrations in rats,"[1]; intravenous 2 mg/kg, 24 h, individual animals 1-3, listed as DC411151, 2 mg/kg",BQL and 1.94 ng/ml
same,Tmax,"[1]; rat, in vivo, po, rats, intragastric 20 mg/kg, individual animals 4-6, read-out: Tmax",1 h
same,AUC0-t,"[1]; rat, in vivo, po, rats, intragastric 20 mg/kg, mean, read-out: AUC0-t",8780 ng·h/mL
same,Cmax,"[1]; rat, in vivo, po, rats, intragastric 20 mg/kg, mean, read-out: Cmax",2760 ng/mL
same,clearance,[1]; [2],8.66 mL/min/kg
same,half-life,[1]; [2],3.04 h
same,Vd,"[1]; rat, in vivo, rats, intravenous 2 mg/kg, mean, read-out: Vss",0.758 L/kg
same,concentration at 0.083 h,"[1]; rat, plasma, iv, 2 mg/kg, intravenous 2 mg/kg, 0.083 h, individual animals 1-3",3940 ng/mL
same,concentration at 0.083 h,"[1]; rat, plasma, iv, 2 mg/kg, intravenous 2 mg/kg, 0.083 h, mean",3680 ng/mL
same,concentration at 0.25 h,"[1]; rat, plasma, iv, 2 mg/kg, intravenous 2 mg/kg, 0.25 h, individual animals 1-3",2950 ng/mL
same,concentration at 0.25 h,"[1]; rat, plasma, iv, 2 mg/kg, intravenous 2 mg/kg, 0.25 h, mean",2770 ng/mL
same,concentration at 0.5 h,"[1]; rat, plasma, iv, 2 mg/kg, intravenous 2 mg/kg, 0.5 h, individual animals 1-3",1570 ng/mL
same,concentration at 0.5 h,"[1]; rat, plasma, iv, 2 mg/kg, intravenous 2 mg/kg, 0.5 h, mean",1720 ng/mL
same,concentration at 1 h,"[1]; rat, plasma, iv, 2 mg/kg, intravenous 2 mg/kg, 1 h, individual animals 1-3",900 ng/mL
same,concentration at 1 h,"[1]; rat, plasma, iv, 2 mg/kg, intravenous 2 mg/kg, 1 h, mean",987 ng/mL
same,concentration at 2 h,"[1]; rat, plasma, iv, 2 mg/kg, intravenous 2 mg/kg, 2 h, individual animals 1-3",419 ng/mL
same,concentration at 2 h,"[1]; rat, plasma, iv, 2 mg/kg, intravenous 2 mg/kg, 2 h, mean",503 ng/mL
same,concentration at 4 h,"[1]; rat, plasma, iv, 2 mg/kg, intravenous 2 mg/kg, 4 h, individual animals 1-3",128 ng/mL
same,concentration at 4 h,"[1]; rat, plasma, iv, 2 mg/kg, intravenous 2 mg/kg, 4 h, mean",146 ng/mL
same,concentration at 6 h,"[1]; rat, plasma, iv, 2 mg/kg, intravenous 2 mg/kg, 6 h, individual animals 1-3",45.8 ng/mL
same,concentration at 6 h,"[1]; rat, plasma, iv, 2 mg/kg, intravenous 2 mg/kg, 6 h, mean",48.1 ng/mL
same,concentration at 8 h,"[1]; rat, plasma, iv, 2 mg/kg, intravenous 2 mg/kg, 8 h, individual animals 1-3",11.8 ng/mL
same,concentration at 8 h,"[1]; rat, plasma, iv, 2 mg/kg, intravenous 2 mg/kg, 8 h, mean",14.1 ng/mL
same,concentration at 24 h,"[1]; rat, plasma, iv, 2 mg/kg, intravenous 2 mg/kg, 24 h, individual animals 1-3",1.16 ng/mL
same,concentration at 24 h,"[1]; rat, plasma, iv, 2 mg/kg, intravenous 2 mg/kg, 24 h, mean",1.55 ng/mL
same,AUC(0-inf),"[1]; rat, plasma, iv, 2 mg/kg, rats, intravenous 2 mg/kg, individual animals 1-3",3570 ng·h/mL
